Measurements from PubChem BioAssay (NCI).
“And” between values parts separate entries of the source, which are not always exact repeats. Identical values can stand only once.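 The compound was tested at five concentrations on cells cultured in 96-well plates, with a 48-hour exposure period. GI50: concentration for 50% inhibition of growth. TGI is the concentration that stops growth completely.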

What was measured:
Assay in all cases: inhibition of tumour cell growth, NCI panel, 48 h
HCT-15 colon = tested on: HCT-15 colon
KM12 colon = tested on: KM12 colon
MOLT-4 leukemia = tested on: MOLT-4 leukemia
NCI-H226 lung = tested on: NCI-H226 lung
NCI-H23 lung = tested on: NCI-H23 lung
NCI-H522 lung = tested on: NCI-H522 lung
RPMI-8226 leukemia = tested on: RPMI-8226 leukemia
SN12C renal = tested on: SN12C renal
TK-10 renal = tested on: TK-10 renal
UACC-257 melanoma = tested on: UACC-257 melanoma

Row | Compound | TGI (HCT-15 colon) | TGI (KM12 colon) | TGI (MOLT-4 leukemia) | TGI (NCI-H226 lung) | GI50 (NCI-H23 lung) [µM] | TGI (NCI-H23 lung) | TGI (NCI-H522 lung) | TGI (RPMI-8226 leukemia) | TGI (SN12C renal) | TGI (TK-10 renal) [µM] | TGI (UACC-257 melanoma) | GI50 (HCT-15 colon) [µM] | GI50 (KM12 colon) [µM] | GI50 (MOLT-4 leukemia) [µM] | GI50 (NCI-H226 lung) [µM] | GI50 (NCI-H522 lung) [µM] | GI50 (RPMI-8226 leukemia) [µM] | GI50 (SN12C renal) [µM] | GI50 (TK-10 renal) [µM] | GI50 (UACC-257 melanoma) [µM]
1 | COC1C(O)CC(OC2CC(OC3CC(O[C@@H]4C(=O)c5c(cc6cc(OC7CC(OC8CC(O)C(O)C(C)O8)C(O)C(C)O7)c(C)c(O)c6c5O)C[C@H]4[C@H](OC)C(=O)[C@@H](O)[C@@H](C)O)OC(C)C3O)OC(C)C2O)OC1C (some centres undefined) | 22 µM | > 12 µM | 0.222 µM | < 0.215 µM | < 0.0189 | < 0.0442 µM | 0.0358 µM | 0.383 µM | > 60.5 µM | > 39.8 | 0.931 µM |  |  |  |  |  |  |  |  | 
2 | CCOc1ccc(NC(=O)c2cc3ccccc3cc2O)cc1 | > 100 µM | > 100 µM | > 100 µM | > 100 µM | 45.9 | > 100 µM | > 100 µM | > 100 µM | > 100 µM | > 100 | > 100 µM | > 100 | > 100 | > 100 | 64.3 | 59.1 | 38.9 | > 100 | 74.8 | > 100
3 | C/C(CC(=O)Nc1ccccc1)=N\NC(N)=S |  | > 100 µM | > 100 µM | > 100 µM |  | > 100 µM | > 100 µM | > 100 µM |  | > 100 | > 100 µM |  |  |  |  |  |  |  |  | 
4 | O=C(O)c1nnsc1-c1csnn1 | > 100 µM | > 100 µM | > 100 µM | > 100 µM |  | > 100 µM | > 100 µM | > 100 µM | > 100 µM | > 100 | > 100 µM |  |  |  |  |  |  |  |  | 
5 | COc1ccc(/C(=C\c2cc(OC)c(OC)c(OC)c2)C(=O)O)cc1 | > 100 µM | 85.6 µM | 86.3 µM | 77.4 µM |  |  | 47.7 µM | 84.6 µM | > 100 µM | > 100 | > 100 µM |  |  |  |  |  |  |  |  | 
6 | COc1ccc(C2SCC(=O)N2NC(=O)C(O)c2ccccc2)cc1 (centres undefined) | > 100 µM | > 100 µM | > 100 µM | > 100 µM |  |  | > 100 µM | > 100 µM | > 100 µM | > 100 | > 100 µM | > 100 | > 100 | > 100 | > 100 | > 100 | 61.3 | > 100 | > 100 | > 100
7 | Cc1ccc(N(/C=C/C(=O)C(F)(F)F)CC(=O)c2ccc(Cl)c(Cl)c2)cc1 | 14.5 µM | 15 µM | 19.9 µM | 28.7 µM | 10.3 | 21.9 µM | 17.8 µM | 27 µM | 25.8 µM | 24.5 | 22 µM | 3.64 | 3.53 | 4.48 | 14.9 | 5.16 | 10.8 | 13.1 | 12.1 | 10.3
8 | c1ccc2c(-c3cnn4cc(-c5ccc(N6CCNCC6)cc5)cnc34)ccnc2c1 | 1.45 µM | 2.39 µM | 2.34 µM | 3.59 µM | 1.48 | 3.05 µM | 2.9 µM | 0.931 µM | 2.62 µM | 3.2 | 3.29 µM | 0.325 | 1.15 | 0.885 | 1.65 | 1.5 | 0.327 | 1.22 | 1.76 | 1.75
9 | Clc1ccc(N/N=C(\c2ccccc2)c2ccccn2)nc1 | > 38.3 µM and 14.1 µM | > 41.4 µM and 5.81 µM |  | 5.16 µM and 0.736 µM | 0.279 | > 77.9 µM and 12.9 µM | 2.77 µM | > 52.6 µM | > 49.2 µM and 33.1 µM | > 100 | 12 µM and 20.7 µM | 0.0505 | 0.39 | 0.0367 | 0.197 | 0.0805 | 0.128 | 0.251 | 0.338 | 0.154
10 | CCOc1ccc2c(c1)C(=O)c1c-2n(CCCN)c(=O)c2cc([N+](=O)[O-])ccc12 | 1.24 µM | 2.1 µM |  | 3.26 µM | 0.0425 | 0.473 µM | 1.52 µM | 0.302 µM | 1.93 µM | 2.78 | 2.44 µM | 0.209 | 0.532 |  | 1.22 | 0.0134 | 0.0443 | 0.0667 | 1.27 | 1.19
11 | OCc1ncc(-c2ccccc2)s1 | > 100 µM | > 100 µM | > 100 µM | > 100 µM | > 100 | > 100 µM | > 100 µM | > 100 µM | > 100 µM | > 100 | > 100 µM | > 100 | > 100 | > 100 | > 100 | > 100 | > 100 | > 100 | > 100 | > 100
12 | CN(C)CCCN1c2ccc(O)cc2Sc2ccc(Cl)cc21 | 29 µM | 23 µM | 17.5 µM | 24.7 µM |  | 34 µM | 25.3 µM | 21.9 µM | 23.1 µM | 24.9 | 4.14 µM |  |  |  |  |  |  |  |  | 
13 | CC(=O)OCC1OC(n2c(=S)n(-c3ccccc3)c(=O)c3cc(Br)ccc32)C(OC(C)=O)C(OC(C)=O)C1OC(C)=O (centres undefined) | > 100 µM | > 100 µM | > 100 µM | > 100 µM |  | > 100 µM | > 100 µM | > 100 µM | > 100 µM |  | > 100 µM |  |  |  |  |  |  |  |  | 
14 | CC(=O)OC1CC2(O)C(CCC3(C)C(c4ccc(=O)oc4)CCC32O)C2(C)CCC(OC3OC(CO)C(O)C(O)C3O)C=C12 (centres undefined) | 0.134 µM | 0.2 µM | 0.015 µM | 0.176 µM | 0.0114 | 0.0539 µM | 0.148 µM | 0.162 µM |  | 0.201 | 0.206 µM | 0.0343 | 0.0416 | < 0.01 | 0.051 | < 0.01 | 0.0309 |  | 0.0226 | 0.0383
15 | COc1cccc2c1C(=O)c1c(O)c3c(c(O)c1C2=O)C[C@@](O)(C(C)=O)C[C@@H]3OC1CC(O)C(O)C(C)O1 (some centres undefined) | 9.84 µM and 14.6 µM | 9.61 µM and 12.2 µM | 0.523 µM and 0.137 µM | 4.77 µM and 1.58 µM |  | 6.17 µM and 4.32 µM | 9.44 µM and 7.38 µM | 5.5 µM and 8.53 µM | 8.75 µM and 17.5 µM | 81.3 |  |  |  |  |  |  |  |  |  | 
